This passage reports IC50 and EC50 results from patent US20260242391A1 (priority 2023, published 2026).

One series is described as follows: in vitro. The note with it: human.
A further series concerns HL-60. Put plainly: HL-60 differentiation potency. The class given is cell-based. The note with it: Homo sapiens.

Usually IC50 stands for the concentration that inhibits the measured activity by half. The low end stands for greater potency in that assay, the high end for weaker potency in that assay. What is called EC50 is the concentration at which the effect is half-maximal. A high value points to weaker potency.

Structures are written as SMILES.

`C[C@H]1[C@@H](Oc2ccc(C(=O)N3CC[C@@H](C(=O)O)C3)cc2Cl)O[C@@H]2O[C@@]3(C)CC[C@H]4[C@H](C)CC[C@@H]1[C@@]24OO3` [Compound 247, (R)-1-(3-chloro-4-(((3R,5aS,6R,8aS, 9R,10S,12R, 12aR)-3,6,9-trimethyldeca-hydro-12H-3,12-epoxy[1,2]dioxepino[4,3-i]isochromen-10-yl)oxy)benzoyl) pyrrolidine-3-carboxylic acid]: in “in vitro”, the IC50 came out at 1.42 µM. This compound showed an EC50 in the series on HL-60 of 0.0561 µM.
In the series “in vitro”, `C[C@H]1[C@@H](OCc2ccc(C(=O)N[C@H]3C[C@@H](C(=O)O)C3)cc2)O[C@@H]2O[C@@]3(C)CC[C@H]4[C@H](C)CC[C@@H]1[C@@]24OO3` [Compound 278, (1R,3s)-3-(4-((((3R,5aS,6R,8aS, 9R,10S,12R, 12aR)-3,6,9-trimethyldeca-hydro-12H-3,12-epoxy[1,2]dioxepino[4,3-i]isochromen-10-yl)oxy)methyl)benzamido) cyclobutane-1-carboxylic acid] showed an IC50 of more than 20 µM. The half-maximal effective concentration (EC50) in the series with HL-60 was 0.354 µM.
The corresponding values for `C[C@H]1[C@@H](Oc2ccc(C(=O)N3C[C@H]4[C@@H]([C@H]3C(=O)O)C4(C)C)cc2)O[C@@H]2O[C@@]3(C)CC[C@H]4[C@H](C)CC[C@@H]1[C@@]24OO3` [Compound 190, (1R,2S,5S)-6,6-dimethyl-3-(4-(((3R,5aS,6R,8aS, 9R,10S,12R, 12aR)-3,6,9-trimethyldeca-hydro-12H-3,12-epoxy[1,2]dioxepino[4,3-i]isochromen-10-yl)oxy)benzoyl)-3-azabicyclo[3.1.0] hexane-2-carboxylic acid] are 0.33 µM and 0.0803 µM.
In “in vitro”, `C[C@H]1[C@@H](OC[C@H]2CC[C@@H](C(=O)N3CC[C@@H](C(=O)O)C3)CC2)O[C@@H]2O[C@@]3(C)CC[C@H]4[C@H](C)CC[C@@H]1[C@@]24OO3` [Compound 263, (R)-1-((1R,4S)-4-((((3R,5aS,6R,8aS, 9R,10S,12R, 12aR)-3,6,9-trimethyldeca-hydro-12H-3,12-epoxy[1,2]dioxepino[4,3-i]isochromen-10-yl)oxy)methyl)cyclohexane-1-carbonyl) pyrrolidine-3-carboxylic acid] showed an IC50 of 16.8 µM. Also, in the series with HL-60, the concentration giving a half-maximal response (EC50) worked out at 0.374 µM.
The corresponding values for `C[C@H]1[C@@H](Oc2ccc(C(=O)O)cc2Cl)O[C@@H]2O[C@@]3(C)CC[C@H]4[C@H](C)CC[C@@H]1[C@@]24OO3` [Compound 235, 3-chloro-4-(((3R,5aS,6R,8aS, 9R,10S,12R, 12aR)-3,6,9-trimethyldeca-hydro-12H-3,12-epoxy[1,2]dioxepino[4,3-i]isochromen-10-yl)oxy)benzoic acid] are 15 µM and 0.0375 µM.
For `C[C@H]1[C@@H](O[C@H]2CC[C@@H](C(=O)N[C@H](C(=O)O)c3ccccc3)CC2)O[C@@H]2O[C@@]3(C)CC[C@H]4[C@H](C)CC[C@@H]1[C@@]24OO3` [Compound 189, (S)-2-phenyl-2-((1R,4R)-4-(((3R,5aS,6R,8aS, 9R,10S,12R, 12aR)-3,6,9-trimethyldeca-hydro-12H-3,12-epoxy[1,2]dioxepino[4,3-i]isochromen-10-yl)oxy)cyclo-hexane-1-carboxamido) acetic acid] the same measures were 15.2 µM and 1.89 µM.
As for `C[C@H]1[C@@H](Oc2ccc(CC(=O)NC34CCC(C(=O)O)(C3)C4)cc2)O[C@@H]2O[C@@]3(C)CC[C@H]4[C@H](C)CC[C@@H]1[C@@]24OO3` [Compound 300, 4-(2-(4-(((3R,5aS,6R,8aS, 9R,10S,12R, 12aR)-3,6,9-trimethyldeca-hydro-12H-3,12-epoxy[1,2]dioxepino[4,3-i]isochromen-10-yl)oxy)phenyl)acetamido) bicyclo[2.1.1] hexane-1-carboxylic acid], the IC50 in the series “in vitro” stood at 19.5 µM. The same compound showed a half-maximal effective concentration (EC50) in the series with HL-60 of 0.017 µM.
Compound `C[C@H]1[C@@H](Oc2ccc(C(=O)N[C@H]3CC[C@@H](C(=O)O)C3)cc2Cl)O[C@@H]2O[C@@]3(C)CC[C@H]4[C@H](C)CC[C@@H]1[C@@]24OO3` [Compound 232, (1R,3S)-3-(3-chloro-4-(((3R,5aS,6R,8aS, 9R,10S,12R, 12aR)-3,6,9-trimethyldeca-hydro-12H-3,12-epoxy[1,2]dioxepino[4,3-i]isochromen-10-yl)oxy)benzamido)cyclo-pentane-1-carboxylic acid] came in with an IC50 in “in vitro” of 0.62 µM. This compound returned an EC50 in the series with HL-60 of 0.0299 µM.
`C[C@H]1[C@@H](Oc2ccc(C3(C(=O)O)COC3)cc2)O[C@@H]2O[C@@]3(C)CC[C@H]4[C@H](C)CC[C@@H]1[C@@]24OO3` [Compound 283, 3-(4-(((3R,5aS,6R,8aS, 9R,10S,12R, 12aR)-3,6,9-trimethyldeca-hydro-12H-3,12-epoxy[1,2]dioxepino[4,3-i]isochromen-10-yl)oxy)phenyl) oxetane-3-carboxylic acid]: the IC50 in “in vitro” was more than 20 µM. Also, a half-maximal response in the series on HL-60 (EC50) required 0.0403 µM.
The corresponding values for `C[C@H]1[C@@H](OC[C@]2(F)CC[C@@H](C(=O)O)CC2)O[C@@H]2O[C@@]3(C)CC[C@H]4[C@H](C)CC[C@@H]1[C@@]24OO3` [Compound 200, (1R,4s)-4-fluoro-4-((((3R,5aS,6R,8aS, 9R,10S,12R, 12aR)-3,6,9-trimethyldeca-hydro-12H-3,12-epoxy[1,2]dioxepino[4,3-i]isochromen-10-yl)oxy)methyl) cyclohexane-1-carboxylic acid] are 15.3 µM and 4.47 µM.
The corresponding values for `C[C@H]1[C@@H](Oc2ccc([C@H](N)C(=O)O)cc2)O[C@@H]2O[C@@]3(C)CC[C@H]4[C@H](C)CC[C@@H]1[C@@]24OO3` [Compound 194, (S)-2-amino-2-(4-(((3R,5aS,6R,8aS, 9R,10S,12R, 12aR)-3,6,9-trimethyldeca-hydro-12H-3,12-epoxy[1,2]dioxepino[4,3-i]isochromen-10-yl)oxy)phenyl) acetic acid] are more than 20 µM and 17.7 µM.
With `C[C@H]1[C@@H](Oc2ccc(C3CC3C(=O)O)cc2)O[C@@H]2O[C@@]3(C)CC[C@H]4[C@H](C)CC[C@@H]1[C@@]24OO3` (stereo partly drawn) [Compound 192, 2-(4-(((3R,5aS,6R,8aS, 9R,10S,12R, 12aR)-3,6,9-trimethyldeca-hydro-12H-3,12-epoxy[1,2]dioxepino[4,3-i]isochromen-10-yl)oxy)phenyl) cyclopropane-1-carboxylic acid], the midpoint of inhibition in “in vitro”, the IC50, lay at 3.5 µM. Moreover, the EC50 in the series with HL-60 came to 0.0672 µM.
In turn, `C[C@H]1[C@@H](O[C@H]2CC[C@@H](C(=O)N[C@H]3C[C@@H](C(=O)O)C3)CC2)O[C@@H]2O[C@@]3(C)CC[C@H]4[C@H](C)CC[C@@H]1[C@@]24OO3` [Compound 228, (1S,3s)-3-((1R,4S)-4-(((3R,5aS,6R,8aS, 9R,10S,12R, 12aR)-3,6,9-trimethyldeca-hydro-12H-3,12-epoxy[1,2]dioxepino[4,3-i]isochromen-10-yl)oxy)cyclo-hexane-1-carboxamido) cyclobutane-1-carboxylic acid] came in with an IC50 in the series “in vitro” of more than 20 µM. The compound also returned an EC50 in the series on HL-60 of 9.2 µM.
The corresponding values for `C[C@H]1[C@@H](Oc2ccc(COCC(=O)O)cc2)O[C@@H]2O[C@@]3(C)CC[C@H]4[C@H](C)CC[C@@H]1[C@@]24OO3` [Compound 219, 2-((4-(((3R,5aS,6R,8aS, 9R,10S,12R, 12aR)-3,6,9-trimethyldeca-hydro-12H-3,12-epoxy[1,2]dioxepino[4,3-i]isochromen-10-yl)oxy)benzyl)oxy)acetic acid] are 13.1 µM and 0.062 µM.
